Reference: PubChem BioAssay AID248 (DTP/NCI, 2004)
Values joined by “and” are separate entries in the source; they are usually repeats but may differ in a detail not shown here. Equal entries are not always repeated. Toxic doses and inconclusive results are not listed.

Test system: L1210 leukemia ip in BDF1 mice, survival T/C
Test: NCI In Vivo Anticancer Drug Screen. Data for tumor model L1210 Leukemia (intraperitoneal) in B6D2F1 (BDF1) mice
Settings: endpoint: mean survival time, higher = longer survival
Procedure, shortened: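 Each compound was tested against a transplantable tumor grown in mice. The endpoint was survival, with treated animals benchmarked against vehicle controls as a simple ratio.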

[1] = dose: 100.0 mg/kg/injection, schedule: Q01DX009 (ip), vehicle: saline with Tween-80
[2] = dose: 100.0 mg/kg/injection, schedule: Q04DX003 (ip), vehicle: saline with Tween-80
[3] = dose: 200.0 mg/kg/injection, schedule: Q01DX009 (ip), vehicle: saline with Tween-80
[4] = dose: 200.0 mg/kg/injection, schedule: Q04DX003 (ip), vehicle: saline with Tween-80
[5] = dose: 400.0 mg/kg/injection, schedule: Q01DX009 (ip), vehicle: saline with Tween-80
[6] = dose: 400.0 mg/kg/injection, schedule: Q04DX003 (ip), vehicle: saline with Tween-80
[7] = dose: 100.0 mg/kg/injection, schedule: Q01DX001 (ip), vehicle: saline with Tween-80
[8] = dose: 200.0 mg/kg/injection, schedule: Q01DX001 (ip), vehicle: saline with Tween-80
[9] = dose: 100.0 mg/kg/injection, schedule: Q01DX009 (ip), vehicle: Klucel (hydroxypropylcellulose) (HPC)
[10] = dose: 200.0 mg/kg/injection, schedule: Q01DX009 (ip), vehicle: Klucel (hydroxypropylcellulose) (HPC)
[11] = dose: 100.0 mg/kg/injection, schedule: Q04DX002 (ip), vehicle: Klucel (hydroxypropylcellulose) (HPC)
[12] = dose: 200.0 mg/kg/injection, schedule: Q04DX002 (ip), vehicle: Klucel (hydroxypropylcellulose) (HPC)
[13] = dose: 400.0 mg/kg/injection, schedule: Q04DX002 (ip), vehicle: Klucel (hydroxypropylcellulose) (HPC)
[14] = dose: 100.0 mg/kg/injection, schedule: Q01DX001 (ip), vehicle: saline
[15] = dose: 200.0 mg/kg/injection, schedule: Q01DX001 (ip), vehicle: saline
[16] = dose: 400.0 mg/kg/injection, schedule: Q01DX001 (ip), vehicle: saline

Structure (SMILES): CCOC(OCC)C(=O)OCC(=O)[C@]1(O)Cc2c(O)c3c(c(O)c2[C@@H](OC2CC(N)C(O)C(C)O2)C1)C(=O)c1c(OC)cccc1C3=O (some centres not stated)
- T/C (dose: 0.25 mg/kg/injection, schedule: Q01DX009 (ip), vehicle: saline): 118 % of control
- T/C (dose: 2.0 mg/kg/injection, schedule: Q01DX009 (ip), vehicle: saline): 182 % of control
- T/C (dose: 4.0 mg/kg/injection, schedule: Q01DX009 (ip), vehicle: saline): 90 % of control

Structure (SMILES): CCOC(=O)C1C(=O)C(C(=O)Nc2ccccc2)C(=O)C(C(=O)OCC)C1c1ccc(O)cc1 (configuration not stated)
- T/C (dose: 100.0 mg/kg/injection, schedule: Q01DX001 (ip), vehicle: other): 91 % of control and 97 % of control
- T/C [1]: 102 % of control and 100 % of control
- T/C [2]: 103 % of control and 97 % of control
- T/C (dose: 200.0 mg/kg/injection, schedule: Q01DX001 (ip), vehicle: other): 94 % of control and 91 % of control
- T/C [3]: 96 % of control and 100 % of control
- T/C [4]: 97 % of control
- T/C [5]: 100 % of control and 101 % of control
- T/C [6]: 97 % of control and 96 % of control

Structure (SMILES): O=C(/C=C/C=[N+](/[O-])O)c1cncc(F)c1
- T/C (dose: 100.0 mg/kg/injection, schedule: Q04DX002 (ip), vehicle: saline): 93 % of control
- T/C (dose: 200.0 mg/kg/injection, schedule: Q04DX002 (ip), vehicle: saline): 101 % of control
- T/C (dose: 400.0 mg/kg/injection, schedule: Q04DX002 (ip), vehicle: saline): 93 % of control

Structure (SMILES): Oc1ccc(O)c(CCCc2cc(O)ccc2O)c1
- T/C [2]: 98 % of control
- T/C [4]: 98 % of control
- T/C [6]: 90 % of control

Structure (SMILES): Fc1c(F)c(F)c(-c2c(F)c(F)c(-c3c(F)c(F)c(-c4c(F)c(F)c(F)c(F)c4F)c(F)c3F)c(F)c2F)c(F)c1F
- T/C [7]: 88 % of control
- T/C [8]: 88 % of control
- T/C (dose: 400.0 mg/kg/injection, schedule: Q01DX001 (ip), vehicle: saline with Tween-80): 88 % of control

Structure (SMILES): O=C1OC(c2ccccc2)=C/C1=C/c1ccc(Cl)cc1
- T/C (dose: 25.0 mg/kg/injection, schedule: Q04DX003 (ip), vehicle: alcohol): 88 % of control
- T/C (dose: 50.0 mg/kg/injection, schedule: Q04DX003 (ip), vehicle: alcohol): 90 % of control
- T/C (dose: 100.0 mg/kg/injection, schedule: Q01DX001 (ip), vehicle: alcohol): 86 % of control
- T/C (dose: 100.0 mg/kg/injection, schedule: Q04DX003 (ip), vehicle: alcohol): 87 % of control
- T/C (dose: 150.0 mg/kg/injection, schedule: Q01DX009 (ip), vehicle: alcohol): 89 % of control
- T/C (dose: 150.0 mg/kg/injection, schedule: Q04DX003 (ip), vehicle: alcohol): 87 % of control
- T/C (dose: 225.0 mg/kg/injection, schedule: Q01DX009 (ip), vehicle: alcohol): 86 % of control
- T/C (dose: 225.0 mg/kg/injection, schedule: Q04DX003 (ip), vehicle: alcohol): 91 % of control
- T/C (dose: 335.0 mg/kg/injection, schedule: Q01DX009 (ip), vehicle: alcohol): 107 % of control
- T/C (dose: 335.0 mg/kg/injection, schedule: Q04DX003 (ip), vehicle: alcohol): 90 % of control

Structure (SMILES): COC(=O)C1(COC(C)=O)CC1
- T/C (dose: 50.0 mg/kg/injection, schedule: Q01DX001 (ip), vehicle: saline with Tween-80): 103 % of control
- T/C [7]: 97 % of control
- T/C [8]: 103 % of control

Structure (SMILES): CSc1nccnc1C
- T/C (dose: 50.0 mg/kg/injection, schedule: Q01DX009 (ip), vehicle: Klucel (hydroxypropylcellulose) (HPC)): 119 % of control
- T/C [9]: 96 % of control
- T/C [10]: 105 % of control

Structure (SMILES): Cc1ccc(C(=O)/C=C\c2ccc(Cl)c(Cl)c2)cc1
- T/C [11]: 92 % of control
- T/C [12]: 106 % of control
- T/C [13]: 95 % of control

Structure (SMILES): Cc1ccc(C2C(C(=O)O)C2c2ccccc2)cc1 (configuration not stated)
- T/C [11]: 106 % of control
- T/C [12]: 95 % of control
- T/C [13]: 92 % of control

Structure (SMILES): COc1ccc(C#N)cc1OC
- T/C (dose: 6.25 mg/kg/injection, schedule: Q04DX002 (ip), vehicle: Klucel (hydroxypropylcellulose) (HPC)): 93 % of control
- T/C (dose: 12.5 mg/kg/injection, schedule: Q04DX002 (ip), vehicle: Klucel (hydroxypropylcellulose) (HPC)): 96 % of control
- T/C (dose: 25.0 mg/kg/injection, schedule: Q04DX002 (ip), vehicle: Klucel (hydroxypropylcellulose) (HPC)): 93 % of control and 96 % of control
- T/C [11]: 100 % of control
- T/C [12]: 92 % of control

Structure (SMILES): CCOc1ccc(/C=N/NC(C)=O)cc1OC
- T/C (dose: 50.0 mg/kg/injection, schedule: Q01DX009 (ip), vehicle: saline with Tween-80): 95 % of control
- T/C [1]: 101 % of control

Structure (SMILES): CNCC(O)c1cccc(O)c1 (configuration not stated)
- T/C (dose: 1.56 mg/kg/injection, schedule: Q01DX009 (ip), vehicle: saline): 94 % of control
- T/C (dose: 3.12 mg/kg/injection, schedule: Q01DX009 (ip), vehicle: saline): 98 % of control
- T/C (dose: 3.12 mg/kg/injection, schedule: Q04DX003 (ip), vehicle: saline): 109 % of control
- T/C (dose: 6.25 mg/kg/injection, schedule: Q01DX009 (ip), vehicle: saline): 94 % of control
- T/C (dose: 6.25 mg/kg/injection, schedule: Q04DX003 (ip), vehicle: saline): 104 % of control
- T/C (dose: 12.5 mg/kg/injection, schedule: Q01DX009 (ip), vehicle: saline): 122 % of control
- T/C (dose: 12.5 mg/kg/injection, schedule: Q04DX003 (ip), vehicle: saline): 96 % of control
- T/C (dose: 25.0 mg/kg/injection, schedule: Q01DX009 (ip), vehicle: saline): 100 % of control
- T/C (dose: 25.0 mg/kg/injection, schedule: Q04DX003 (ip), vehicle: saline): 113 % of control

Structure (SMILES): CC(CO)(CO)N=Cc1cc(Br)ccc1O
- T/C (dose: 100.0 mg/kg/injection, schedule: Q01DX001 (ip), vehicle: carboxymethylcellulose (CMC)): 102 % of control
- T/C (dose: 200.0 mg/kg/injection, schedule: Q01DX001 (ip), vehicle: carboxymethylcellulose (CMC)): 100 % of control
- T/C (dose: 400.0 mg/kg/injection, schedule: Q01DX001 (ip), vehicle: carboxymethylcellulose (CMC)): 86 % of control

Structure (SMILES): Nc1ccnn2nnnc12
- T/C [14]: 97 % of control
- T/C [15]: 91 % of control
- T/C [16]: 97 % of control

Structure (SMILES): NNC(=O)CNc1ccc(F)c(Cl)c1
- T/C (dose: 25.0 mg/kg/injection, schedule: Q04DX002 (ip), vehicle: saline + alcohol): 113 % of control
- T/C (dose: 50.0 mg/kg/injection, schedule: Q04DX002 (ip), vehicle: saline + alcohol): 95 % of control
- T/C (dose: 100.0 mg/kg/injection, schedule: Q04DX002 (ip), vehicle: saline + alcohol): 98 % of control and 123 % of control

Structure (SMILES): CC1(C)OC(CCl)C2OC(C)(C)OC(CCl)C2O1 (configuration not stated)
- T/C [14]: 93 % of control
- T/C [15]: 88 % of control
- T/C [16]: 104 % of control

Structure (SMILES): CC1CCC2N(C1)CC1C3(O)CC45OC6(O)C(O)CCC4(C)C6CCC5C3(O)CC(O)C1(O)C2(C)O (configuration not stated)
- T/C (dose: 75.0 mg/kg/injection, schedule: Q01DX001 (ip), vehicle: saline): 104 % of control
- T/C (dose: 150.0 mg/kg/injection, schedule: Q01DX001 (ip), vehicle: saline): 105 % of control

Structure (SMILES): CCSc1ccc2c(cc1=O)C(N)CCc1cc(OC)c(OC)c(OC)c1-2 (configuration not stated)
- T/C (dose: 12.5 mg/kg/injection, schedule: Q04DX002 (ip), vehicle: saline): 107 % of control
- T/C (dose: 25.0 mg/kg/injection, schedule: Q04DX002 (ip), vehicle: saline): 95 % of control
- T/C (dose: 50.0 mg/kg/injection, schedule: Q04DX002 (ip), vehicle: saline): 98 % of control

Structure (SMILES): Cc1cc(Cl)ccc1NC(=O)c1ccc(Cl)cc1Cl
- T/C [9]: 96 % of control
- T/C (dose: 100.0 mg/kg/injection, schedule: Q04DX003 (ip), vehicle: Klucel (hydroxypropylcellulose) (HPC)): 95 % of control
- T/C [10]: 91 % of control
- T/C (dose: 200.0 mg/kg/injection, schedule: Q04DX003 (ip), vehicle: Klucel (hydroxypropylcellulose) (HPC)): 92 % of control
- T/C (dose: 400.0 mg/kg/injection, schedule: Q01DX009 (ip), vehicle: Klucel (hydroxypropylcellulose) (HPC)): 94 % of control
- T/C (dose: 400.0 mg/kg/injection, schedule: Q04DX003 (ip), vehicle: Klucel (hydroxypropylcellulose) (HPC)): 88 % of control

Structure (SMILES): COC(=O)C1(C)CCCC2(C)C1CCC13C=C(C(C)C)C(CC1C(=O)O)CC23 (configuration not stated)
- T/C [1]: 95 % of control
- T/C [3]: 93 % of control
- T/C [5]: 87 % of control

Structure (SMILES): Cc1cc([N+](=O)[O-])ccc1NC(=O)c1ccccc1
- T/C (dose: 100.0 mg/kg/injection, schedule: Q04DX003 (ip), vehicle: acetone): 94 % of control
- T/C (dose: 200.0 mg/kg/injection, schedule: Q04DX003 (ip), vehicle: acetone): 100 % of control
- T/C (dose: 400.0 mg/kg/injection, schedule: Q04DX003 (ip), vehicle: acetone): 93 % of control
